Patent US7462625B2, “Gonadotropin-releasing hormone receptor antagonists and methods relating thereto” (Neurocrine Biosciences, Inc., priority 2000, dated 2008)

biological target: T1, GnRH receptor (Homo sapiens, UniProt P30968); assay: GnRH receptor membrane binding assay; conditions: not given
T1 construct: expressed in transfected cells
T1 sequence (P30968 1-328): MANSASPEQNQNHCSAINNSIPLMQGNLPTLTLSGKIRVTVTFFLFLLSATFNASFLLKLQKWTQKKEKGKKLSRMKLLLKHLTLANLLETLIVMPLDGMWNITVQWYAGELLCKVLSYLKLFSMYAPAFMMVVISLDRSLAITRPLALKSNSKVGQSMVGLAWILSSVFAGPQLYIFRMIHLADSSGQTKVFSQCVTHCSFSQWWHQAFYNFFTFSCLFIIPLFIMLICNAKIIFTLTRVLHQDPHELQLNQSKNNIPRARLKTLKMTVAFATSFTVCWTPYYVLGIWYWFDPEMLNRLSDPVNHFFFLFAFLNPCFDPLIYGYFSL
Description: Radio-Iodination of GnRH Peptide
The GnRH analog is labeled by the chloramine-T method. […] The reaction is stopped by the addition of 60 μg sodium metabisulfite and the free iodine is removed by passing the iodinated mixture through a C-8 Sep-Pak cartridge (Millipore Corp., Milford, Mass.). The peptide is eluted with a small volume of 80% acetonitrile/water. […] The purified radioactive peptide is stored in 0.1% BSA/20% acetonitrile/0.1% TFA at −80° C. and can be used for up to 4 weeks.
GnRH Receptor Membrane Binding Assay
Cells stably, or transiently, transfected with GnRH receptor expression vectors are harvested, resuspended in 5% sucrose and homogenized using a polytron homogenizer (2×15 sec). Nucleii are removed by centrifugation (3000×g for 5 min.), and the supernatant centrifuged (20,000×g for 30 min, 4° C.) to collect the membrane fraction. The final membrane preparation is resuspended in binding buffer (10 mM Hepes (pH 7.5), 150 mM NaCl, and 0.1% BSA) and stored at −70° C. Binding reactions are performed in a Millipore MultiScreen 96-well filtration plate assembly with polyethylenimine coated GF/C membranes. […] The reaction is terminated after 90 minutes by application of vacuum and washing (2×) with phosphate buffered saline. Bound radioactivity is measured using 96-well scintillation counting (Packard Topcount) or by removing the filters from the plate and direct gamma counting. Ki values are calculated from competition binding data using non-linear least squares regression using the Prism software package (GraphPad Software).

Ki, < 0.1 µM:
COc1cccc(-c2c(C)n(Cc3c(F)cccc3F)c(=O)n(CCN(C)CCc3ccccn3)c2=O)c1F [9-24]

same assay, conditions: GnRH receptor membrane binding assay, [125I]-labeled GnRH peptide; read-out: Ki

Ki, < 0.1 µM:
Cc1ccc(N2CCN(CCn3c(=O)c(-c4ccc(Oc5ccccc5)cc4)c(C)n(Cc4c(F)cccc4F)c3=O)CC2)cc1 [9-225], COc1cccc(-c2c(C)n(Cc3c(F)cccc3F)c(=O)n(C[C@H](C)N(C)Cc3ccccc3)c2=O)c1F [9-305], CCCN(CCC)[C@@H](C)Cn1c(=O)c(-c2cccc(OC)c2F)c(C)n(Cc2c(F)cccc2F)c1=O [9-681], COc1cccc(-c2c(C)n(Cc3c(F)cccc3F)c(=O)n(CC(C)NCCCOCC(C)C)c2=O)c1 (stereo not shown) [9-19], Cc1c(-c2csc(-c3ccccc3)n2)c(=O)n(C[C@H](N)c2ccccc2)c(=O)n1Cc1c(F)cccc1F [12-4], CCN(CCc1ccccn1)CCn1c(=O)c(-c2cccc(OC)c2)c(C)n(Cc2c(F)cccc2F)c1=O [1-10], COc1cccc(-c2c(C)n(Cc3c(F)cccc3F)c(=O)n(C[C@@H](C)NCc3ccco3)c2=O)c1F [9-652], COc1cccc(-c2c(C)n(Cc3c(F)cccc3F)c(=O)n(C[C@@H](N)CC(C)C)c2=O)c1F [8-23], COc1cccc(-c2c(C)n(Cc3c(F)cccc3F)c(=O)n(CCN(C)CCc3cccc(Cl)n3)c2=O)c1 [1-11], Cc1c(-c2ccc(Oc3ccccc3)cc2)c(=O)n(CCN2CCN(c3cccc(Cl)c3)CC2)c(=O)n1Cc1c(F)cccc1F [9-40], Cc1c(-c2ccc(Oc3ccccc3)cc2)c(=O)n(CCN2CC[C@@H](NC(=O)C(F)(F)F)C2)c(=O)n1Cc1c(F)cccc1F [9-42], Cc1c(-c2ccc3c(c2)OCCO3)c(=O)n(CCNCC(F)(F)F)c(=O)n1Cc1c(F)cccc1F [9-191], Cc1c(-c2ccc3c(c2)OCCO3)c(=O)n(CCN2CCN(Cc3ccc4c(c3)OCO4)CC2)c(=O)n1Cc1c(F)cccc1F [9-95], COc1cccc(-c2c(C)n(Cc3c(F)cccc3F)c(=O)n(CC[C@@H](N)c3ccccc3)c2=O)c1 [9-774], CCN(CC)CCN(C)CCn1c(=O)c(-c2ccc(C(C)C)cc2)c(C)n(Cc2c(F)cccc2F)c1=O [9-263], Cc1cc(=O)n(C[C@@H](N)Cc2ccccc2)c(=O)n1Cc1c(F)cccc1F [8-4], COc1cccc(CNC[C@@H](C)n2c(=O)c(-c3cccc(OC)c3)c(C)n(Cc3c(F)cccc3F)c2=O)c1 [9-477], CCOC(=O)N1CCN(CCn2c(=O)c(-c3ccc4c(c3)OCO4)c(C)n(Cc3c(F)cccc3F)c2=O)CC1 [9-362], Cc1c(-c2ccccc2F)c(=O)n(CCNC2CCC(C)CC2)c(=O)n1Cc1c(F)cccc1F (stereo not shown) [9-149], COc1cccc(-c2c(C)n(Cc3c(F)cccc3F)c(=O)n([C@H](C)CNCc3cccc4ccccc34)c2=O)c1F [9-502], COc1cccc(-c2c(C)n(Cc3c(F)cccc3F)c(=O)n([C@H](C)CNCc3cccc(C)c3)c2=O)c1 [9-473], COc1cccc(-c2c(C)n(Cc3c(F)cccc3F)c(=O)n(C[C@H](N)C(=O)Nc3ccccc3)c2=O)c1 [8-51], COc1cccc(-c2c(C)n(Cc3c(F)cccc3F)c(=O)n(CC(C)NCc3cccs3)c2=O)c1F (stereo not shown) [9-621], COc1cccc(-c2c(C)n(Cc3c(F)cccc3F)c(=O)n(CCN3CCC(NC(=O)OC(C)(C)C)C3)c2=O)c1 (stereo not shown) [7-4], CCc1ccc(CN[C@@H](C)Cn2c(=O)c(-c3cccc(OC)c3F)c(C)n(Cc3c(F)cccc3F)c2=O)o1 [9-665], Cc1c(-c2ccc3c(c2)OCO3)c(=O)n(CCNCC2CC2)c(=O)n1Cc1c(F)cccc1F [9-245], Cc1c(-c2ccc(Oc3ccccc3)cc2)c(=O)n(CCNCc2ccc([N+](=O)[O-])cc2)c(=O)n1Cc1c(F)cccc1F [9-143], COc1cccc(-c2c(C)n(Cc3c(F)cccc3F)c(=O)n(CCN3CC[C@@H](NC(C)=O)C3)c2=O)c1 [9-7], Cc1c(-c2ccccc2F)c(=O)n(CCN(C)CCc2ccccn2)c(=O)n1Cc1c(F)cccc1F [6-1], COc1ccc(Nc2nc(-c3c(C)n(Cc4c(F)cccc4F)c(=O)n(C[C@H](N)c4ccccc4)c3=O)cs2)cc1 [12-10], Cc1c(-c2ccc(Cl)s2)c(=O)n(C[C@H](N)c2ccccc2)c(=O)n1Cc1c(F)cccc1F [8-75], COc1cccc(-c2c(C)n(Cc3c(F)cccc3F)c(=O)n(CC(C)NCc3cccn3C)c2=O)c1F (stereo not shown) [9-618], COc1cccc(-c2c(C)n(Cc3c(F)cccc3F)c(=O)n([C@H](C)CNCc3ccccc3F)c2=O)c1 [9-446], CN[C@@H](Cc1ccccc1)Cn1c(=O)c(-c2cccc(OC)c2F)c(C)n(Cc2c(F)cccc2F)c1=O [9-517], Cc1c(-c2ccc(Oc3ccccc3)cc2)c(=O)n(CCNCc2cc(C(F)(F)F)cc(C(F)(F)F)c2)c(=O)n1Cc1c(F)cccc1F [9-32], Cc1c(-c2ccc3c(c2)OCCO3)c(=O)n(CCN2CC(C)OC(C)C2)c(=O)n1Cc1c(F)cccc1F (stereo not shown) [9-96], Cc1c(-c2ccccc2F)c(=O)n(CCN(C)C)c(=O)n1Cc1c(F)cccc1F [9-237], COc1cccc(-c2c(C)n(Cc3c(F)cccc3F)c(=O)n([C@H](C)CNCc3cc(C)cc(C)c3)c2=O)c1 [9-454], CCNC(=O)[C@@H]1CCCN1CCn1c(=O)c(-c2cccc(OC)c2)c(C)n(Cc2c(F)cccc2F)c1=O [9-3], COc1cccc(-c2c(C)n(Cc3c(F)cccc3F)c(=O)n(C[C@H](C)NCc3ccccc3)c2=O)c1F [9-304], COc1cccc(-c2c(C)n(Cc3c(F)cccc3F)c(=O)n(C[C@@H](NC(C)C)C(C)C)c2=O)c1F [9-712], Cc1c(-c2ccc3c(c2)OCO3)c(=O)n(CCN2CCN(c3cccc(C(F)(F)F)c3)CC2)c(=O)n1Cc1c(F)cccc1F [9-361], COc1cccc(-c2c(C)n(Cc3c(F)cccc3F)c(=O)n(C[C@H](Cc3ccccc3)N(C)C)c2=O)c1F [9-443], Cc1c(-c2ccc(Oc3ccccc3)cc2)c(=O)n(CCN2CCCC(C(N)=O)C2)c(=O)n1Cc1c(F)cccc1F (stereo not shown) [9-37], Cc1c(-c2ccc3c(c2)OCCO3)c(=O)n(CCN(CCC#N)Cc2cccnc2)c(=O)n1Cc1c(F)cccc1F [9-200], Cc1c(-c2cccs2)c(=O)n(C[C@H](N)c2ccccc2)c(=O)n1Cc1c(F)cccc1F [8-107], COc1ccccc1CCNCCn1c(=O)c(-c2ccc(Oc3ccccc3)cc2)c(C)n(Cc2c(F)cccc2F)c1=O [9-215], COc1cccc(-c2c(C)n(Cc3c(F)cccc3F)c(=O)n([C@H](C)CNCc3ccccc3C)c2=O)c1F [9-653], Cc1cc(=O)n(C[C@@H](N)CC2CCCCC2)c(=O)n1Cc1c(F)cccc1F [8-12], CCN(CCc1ccccn1)CCn1c(=O)c(-c2ccc3c(c2)OCO3)c(C)n(Cc2c(F)cccc2F)c1=O [3-4], COc1cccc(-c2c(C)n(Cc3c(F)cccc3F)c(=O)n(C[C@H](N)C(C)C)c2=O)c1F [8-25], Cc1c(-c2ccc3c(c2)OCO3)c(=O)n(CCN[C@@H](C)c2ccc3ccccc3c2)c(=O)n1Cc1c(F)cccc1F [9-247], COc1cccc(-c2c(C)n(Cc3c(F)cccc3F)c(=O)n(C[C@H](C)NCc3ccc(Cl)s3)c2=O)c1F [9-677], Cc1ccc(-c2c(C)n(Cc3c(F)cccc3F)c(=O)n(C[C@H](N)c3ccccc3)c2=O)s1 [8-106], Cc1c(-c2ccc(Oc3ccccc3)cc2)c(=O)n(CCNCc2ccc(F)cc2C(F)(F)F)c(=O)n1Cc1c(F)cccc1F [9-145], COc1cccc(-c2c(C)n(Cc3c(F)cccc3F)c(=O)n([C@H](C)CNCc3c(F)cccc3Cl)c2=O)c1 [9-514], Cc1cccnc1CCN1CCCC1Cn1c(=O)cc(C)n(Cc2c(F)cccc2F)c1=O (stereo not shown) [9-415]
